Source: patent US20200239530A1, “COMPOUNDS AND METHODS OF MODULATING PROTEIN DEGRADATION” (Vividion Therapeutics, Inc., priority 2017, published 2020)

Experiments:
[1] = biological target: T1, IDH2 Isocitrate dehydrogenase (Homo sapiens, UniProt P48735); test: Cysteine liganding, probe competition; assay type: binding
T1 construct: Cells were resuspended in cold PBS on ice and sonicated with a probe sonicator to achieve lysis; endogenous in cells
T1 sequence (P48735 40-452): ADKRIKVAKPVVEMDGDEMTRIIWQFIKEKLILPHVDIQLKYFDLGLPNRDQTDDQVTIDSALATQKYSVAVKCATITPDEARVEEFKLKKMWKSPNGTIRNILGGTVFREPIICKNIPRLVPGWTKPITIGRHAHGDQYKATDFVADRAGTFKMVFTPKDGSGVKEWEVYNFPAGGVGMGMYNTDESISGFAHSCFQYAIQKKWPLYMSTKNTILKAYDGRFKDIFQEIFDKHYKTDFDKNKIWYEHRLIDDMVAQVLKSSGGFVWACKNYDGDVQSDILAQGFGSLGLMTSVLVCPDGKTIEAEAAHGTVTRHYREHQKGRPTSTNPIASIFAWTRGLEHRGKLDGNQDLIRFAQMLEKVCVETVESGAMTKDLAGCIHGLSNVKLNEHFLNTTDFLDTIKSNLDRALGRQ
Procedure, shortened: (§1)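 Steps: sonicate cells in cold PBS; treat 5 mg/ml lysate with compound (25° C, 1 hr); add desthiobiotin iodoacetamide probe from a 10 mM stock (25° C, 1 hr); precipitate, reduce, alkylate, digest with trypsin; capture labelled peptides on streptavidin for analysis.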

[2] = biological target: T2, FBXO11 F-box only protein 11 (Homo sapiens, UniProt Q86XK2); test: Cysteine liganding, probe competition; assay type: binding
T2 construct: Cells were resuspended in cold PBS on ice and sonicated with a probe sonicator to achieve lysis; endogenous in cells
T2 sequence (Q86XK2 1-927): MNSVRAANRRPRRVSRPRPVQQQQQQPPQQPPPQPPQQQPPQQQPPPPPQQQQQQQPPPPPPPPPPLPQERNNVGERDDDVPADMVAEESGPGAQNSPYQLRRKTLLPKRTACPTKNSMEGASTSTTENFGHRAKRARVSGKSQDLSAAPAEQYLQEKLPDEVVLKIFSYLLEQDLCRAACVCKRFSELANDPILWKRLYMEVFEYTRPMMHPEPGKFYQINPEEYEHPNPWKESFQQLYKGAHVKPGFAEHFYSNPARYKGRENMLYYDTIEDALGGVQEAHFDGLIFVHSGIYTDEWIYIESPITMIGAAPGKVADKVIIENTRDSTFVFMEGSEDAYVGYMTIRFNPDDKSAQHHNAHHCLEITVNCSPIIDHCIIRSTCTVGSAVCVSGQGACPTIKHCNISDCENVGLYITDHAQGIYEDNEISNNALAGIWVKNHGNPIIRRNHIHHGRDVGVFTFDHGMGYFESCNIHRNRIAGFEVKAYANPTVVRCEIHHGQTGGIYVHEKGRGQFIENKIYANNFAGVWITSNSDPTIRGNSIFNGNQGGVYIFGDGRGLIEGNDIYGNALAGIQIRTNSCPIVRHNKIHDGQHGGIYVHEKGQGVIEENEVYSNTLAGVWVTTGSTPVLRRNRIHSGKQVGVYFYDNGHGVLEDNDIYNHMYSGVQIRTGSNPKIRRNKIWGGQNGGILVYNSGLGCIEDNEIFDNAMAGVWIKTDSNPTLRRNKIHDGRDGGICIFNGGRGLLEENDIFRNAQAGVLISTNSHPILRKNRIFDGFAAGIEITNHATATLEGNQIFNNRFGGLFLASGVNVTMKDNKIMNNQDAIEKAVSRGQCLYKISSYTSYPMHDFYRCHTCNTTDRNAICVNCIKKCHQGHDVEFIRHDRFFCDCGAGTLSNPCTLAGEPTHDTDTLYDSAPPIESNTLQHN
Procedure, shortened: as §1

Row | SMILES | Liganded ([1]; IDH2 Res# 154, uniprot P48735) | Liganded ([2]; FBXO11 Res# 581, uniprot Q86XK2) | 100 Max ([1]; uniprot P48735) | 100 ave ([1]; uniprot P48735) | 500 Max ([1]; uniprot P48735) | 500 ave ([1]; uniprot P48735) | 100 Max ([2]; uniprot Q86XK2) | 100 ave ([2]; uniprot Q86XK2) | 500 Max ([2]; uniprot Q86XK2) | 500 ave ([2]; uniprot Q86XK2)
1 | COc1ccc2c(c1)CCCN2C(=O)CCl [KB02] | YES | YES |  |  |  |  |  |  |  | 
2 | O=C(CCl)Nc1cc(C(F)(F)F)cc(C(F)(F)F)c1 [KBO3] |  |  | 63.35 | 43.06 | 73.43 | 70.11 | −13.9 | −20.1 | 28.6 | 20.3
